Where a SMILES comes first, the peptide text is derived from it.
Legend:
[1] = test system: sensory panelists; test: Sweetness modifier test, control vs sample with 30 ppm rebaudioside J (Example 6A); type: in vivo, human; details: sweetener plus 30 ppm rebaudioside J vs sweetener alone; about 5% SEV / 5 degrees Brix; pH 3.1 phosphate buffer; 13 to 16 panelists
Protocol: The ability of rebaudioside J to modify the sweetness of natural and artificial sweeteners was assessed by comparing the sweetness of control samples without rebaudioside J to the sweetness of samples containing a mixture of the natural or artificial sweetener being tested and rebaudioside J. Control solutions were prepared by dissolving sucrose, HFCS, acesulfame-K, aspartame, and sucralose in pH 3.1 phosphate buffer. […] Sucrose and high fructose corn syrup (HFCS) were prepared as 5 degrees Brix solutions. This concentration was confirmed with an Anton Paar refractometer. […] Experimental samples were identical to control samples except for the addition of 30 ppm rebaudioside J. Tasting Protocol: The number of sensory panelists ranged from 13 to 16 for all sweeteners tested. Panelists were provided with a control sample prepared as described above. Panelists were also provided with an otherwise identical experimental sample prepared as described above. Panelists were asked to determine which sample tasted sweeter. […] Panelists wore nose clips and were blinded to the identity of the samples. Sensitivity index, also referred to as a “d' score” was calculated using known statistical methods.

[2] = test system: trained sensory panelists; test: Targeted descriptive analysis (Example 4C); type: in vivo, human; details: vs rebaudioside A
Protocol: Panelists participated in an orientation session to familiarize themselves with sample set. They reviewed aroma, taste, flavor, and texture to determine the attributes most important for describing and differentiating the samples. These attributes were used to develop the ballot for the test evaluations. Three evaluations (replicates) were obtained from each panelist for each evaluation, and a total of 30 judgments were obtained for each sample. 45 mL of each sample was served in a sequential monadic presentation. The serving order was balanced for each panelist. For each test sample, the panelists indicated the intensity of each sensory attribute (labeled with a 3-digit number) on a 15-point line scale.

[3] = test system: trained sensory panelists; test: Adaptation, sweetness and bitterness over time (Example 4B); type: in vivo, human
Protocol: Three evaluations (replicates) were obtained from each panelist for each evaluation, and a total of 30 judgments were obtained for each sample. The samples were evaluated for sweetness and bitterness. Samples were presented blind and coded with random three-digit numbers.
Each panelists took a sip, swirled the sample in his or her mouth for 10 seconds, expectorated and subsequently rated sweetness intensity and bitterness intensity using a 15-point line scale. Panelists repeated this procedure every 30 seconds for 3 minutes. After rinsing 6 times with water, the panelists were given a new sample and that sample was evaluated using the procedure described above

[4] = test system: panelists; test: Benchtop sweetness ranking on 1-10 scale against rebaudioside A 400 ppm and sucrose 6.5% (Example 3); type: in vivo, human; details: 400 ppm
Protocol: Sample preparation: 4 degrees Brix HFCS control solution was prepared by adding 50.89 grams of 78.60 degrees Brix HFCS to 1000 g phosphoric acid base which was prepared by adding phosphoric acid dropwise into 1 L of AQUAFINA water until a pH of 3.1 was observed on a calibrated METTLER TOLEDO PH meter.
For some low soluble compounds, Branson 2800 Ultra Sonic Bath was used to dissolve the material. If any cloudiness persisted, the sample solution was passed through a paper filter. Solubility was confirmed by shining a laser pointer through the solution. If no diffraction was observed then it was assumed that the material was soluble.
Preparation of Rebaudioside A for Sensory Evaluation: 400 ppm rebaudioside A in water (pH=7) was prepared by dissolving 40 mg of rebaudioside A with stirring in 100 mL of water at room temperature.
Preparation of Sucrose for Sensory Evaluation: 6.5% sucrose in water (pH=7) was prepared by adding 6.5 g of sucrose and dissolving it in 93.5 g water (total 100 gr).
Tasting Protocol: Panelists were presented with two numbered samples and asked to note the sweet quality differences between the two samples. Panelists commented on sweetness onset, sweetness linger, overall sugar-like sweetness, and other qualities, such as bitter taste, metallic note, astringency, cooling sensation, any off-notes, and any associated flavors. […]

[5] = test system: trained sensory panelists; test: Dose response, trained sensory panel, 15-point line scale (Example 4A); type: in vivo, human; details: eight concentrations 11.13-625.61 ppm
Protocol: Eight concentrations of rebaudioside J with one blank solution were evaluated (Table 1). Trained sensory panelists participated in an orientation session to familiarize themselves with sample set. Three evaluations (replicates) were obtained from each panelist for each evaluation, and a total of 30 judgments were obtained for each sample.
The panelists were served 10 mL portions of each sample. A 10-minute break was taken between samples. To determine sweetness intensity, the panelists were provided sucrose-containing sweetness intensity reference samples for intensities 5, 8, and 10. For each test sample, the panelists indicated the sweetness intensity of the test sample (labeled with a 3-digit number) on a 15-point line scale.

[6] = test system: human sense of taste; test: Sweetness recognition threshold comparison with 1.5% sucrose; type: in vivo; details: rebaudioside J 40 ppm
Excerpt: The term “sweetness recognition threshold concentration,” as generally used herein, is the lowest known concentration of a given sweetener or combination of sweeteners recognized as sweet by the human sense of taste, typically about 1.5% sucrose equivalence.

[7] = rated every 30 seconds for 3 minutes, 15-point line scale

## COC(=O)[C@H](Cc1ccccc1)NC(=O)[C@@H](N)CC(=O)O [Aspartame, aspartame] (H-Asp-Phe-OMe)
[1]
  Panelist reporting Rebaudioside J increased sweetness (%): 86%
  d' Score: 2.13

## OC[C@H]1O[C@H](O[C@]2(CCl)O[C@H](CCl)[C@@H](O)[C@@H]2O)[C@H](O)[C@@H](O)[C@H]1Cl [Sucralose, sucralose]
[1]
  Panelist reporting Rebaudioside J increased sweetness (%): 89%
  d' Score: 2.44

## C=C1C[C@@]23CC[C@H]4[C@@](C)(CCC[C@@]4(C)C(=O)O[C@@H]4O[C@H](CO)[C@@H](O)[C@H](O)[C@H]4O[C@@H]4O[C@@H](C)[C@H](O)[C@@H](O)[C@H]4O)[C@@H]2CC[C@]1(O[C@@H]1O[C@H](CO)[C@@H](O)[C@H](O[C@@H]2O[C@H](CO)[C@@H](O)[C@H](O)[C@H]2O)[C@H]1O[C@@H]1O[C@H](CO)[C@@H](O)[C@H](O)[C@H]1O)C3 [Rebaudioside J, rebaudioside J]
[2]; 15-point line scale
  bitterness compared with rebaudioside A (FIG. 6): less bitter
  chemical/artificial taste compared with rebaudioside A (FIG. 6): less chemical/artificial taste than rebaudioside A
[2]
  overall impression compared with rebaudioside A (FIG. 8): scored higher in overall impression than rebaudioside A
[3]; [7]
  bitterness intensity over time (FIG. 5): remains low
  sweetness intensity over time (FIG. 5): decreases over time
[3]; vs rebaudioside A
  bitterness over time compared with rebaudioside A (FIG. 7): less bitter than rebaudioside A
[4]
  panelists' notes on taste characteristics: lack of bitterness, sugar-like, syrupy and round characteristics
[4]; rebaudioside A 400 ppm assigned 5, sucrose 6.5% assigned 10, noseclips, blinded
  sweetness score on scale of 1-10 (FIG. 3): 6.7
[5]
  bitterness intensity (FIG. 4): low and only increased slightly with increasing concentration
  sweetness intensity (FIG. 4): increases with increasing concentration
[6]
  sweetness compared with 1.5% sucrose (sweetness recognition threshold): less sweet than 1.5% sucrose

## OC[C@H]1O[C@@](CO)(O[C@H]2O[C@H](CO)[C@@H](O)[C@H](O)[C@H]2O)[C@@H](O)[C@@H]1O [Sucrose, sucrose]
[1]
  Panelist reporting Rebaudioside J increased sweetness (%): 85%
  d' Score: 2.00

## CC1=CC(=O)NS(=O)(=O)O1 [Acesulfame potassium]
[1]
  Panelist reporting Rebaudioside J increased sweetness (%): 85%
  d' Score: 2.30
